Data reported in PubChem BioAssay AID743462 (Vanderbilt Specialized Chemistry Center, 2014).

Molecular target: Metabotropic glutamate receptor 8 (Rattus norvegicus) (UniProt P70579)
Experiment: mGlu8 positive allosteric modulator potency, confirmation, cell-based, rat receptor, GIRK thallium flux (AID 743462)

Chain of Metabotropic glutamate receptor 8 (Rattus norvegicus) (P70579 whole entry, looked up): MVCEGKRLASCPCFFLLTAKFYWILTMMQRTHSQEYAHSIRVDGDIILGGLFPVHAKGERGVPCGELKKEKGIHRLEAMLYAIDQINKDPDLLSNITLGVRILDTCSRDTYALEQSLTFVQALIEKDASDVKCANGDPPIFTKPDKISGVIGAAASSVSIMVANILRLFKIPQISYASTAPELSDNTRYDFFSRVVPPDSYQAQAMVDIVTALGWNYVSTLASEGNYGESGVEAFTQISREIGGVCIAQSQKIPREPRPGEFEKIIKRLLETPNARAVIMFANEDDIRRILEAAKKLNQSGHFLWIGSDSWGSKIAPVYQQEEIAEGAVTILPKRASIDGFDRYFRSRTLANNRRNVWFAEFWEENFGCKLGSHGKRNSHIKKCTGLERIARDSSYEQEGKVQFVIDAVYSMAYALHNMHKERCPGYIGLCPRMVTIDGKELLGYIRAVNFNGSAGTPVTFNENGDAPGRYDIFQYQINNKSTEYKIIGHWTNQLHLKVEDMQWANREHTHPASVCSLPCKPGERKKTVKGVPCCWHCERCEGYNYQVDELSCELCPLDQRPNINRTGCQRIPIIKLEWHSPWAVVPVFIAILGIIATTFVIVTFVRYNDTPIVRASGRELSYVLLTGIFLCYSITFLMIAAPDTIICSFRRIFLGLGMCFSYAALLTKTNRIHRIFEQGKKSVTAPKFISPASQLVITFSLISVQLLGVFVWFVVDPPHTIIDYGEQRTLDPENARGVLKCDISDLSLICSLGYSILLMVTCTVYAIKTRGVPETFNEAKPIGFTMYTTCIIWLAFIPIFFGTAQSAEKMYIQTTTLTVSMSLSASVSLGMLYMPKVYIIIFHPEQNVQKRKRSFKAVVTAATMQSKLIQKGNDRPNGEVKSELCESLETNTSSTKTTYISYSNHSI

- EC50: 1800 nM
SMILES: COC(=O)c1ccc(-n2c(C)cc(C(=O)CSc3ccc(NC(C)=O)cc3)c2C)cc1
